Data from publication PMC5573408, “Pepcan-12 (RVD-hemopressin) is a CB2 receptor positive allosteric modulator constitutively secreted by adrenals and in liver upon tissue damage” (Scientific Reports, 2017).
Values joined by “and” are separate entries in the source; they are usually repeats but may differ in a detail not shown here. Equal entries are not always repeated. No end group written: not given here.

Columns and labels:
hCB2 receptor [1] = target: T1, hCB2 receptor (Homo sapiens, UniProt P34972); assay: [35S]GTPγS assay on hCB2 membranes; assay type: biochemical; design: expressed in transfected cells; host or cells: CHO-K1; conditions: for EC50 / [35S]GTPγS assay Max. Effect: 2-AG, mean (95% CI)
T1 sequence (P34972 whole entry): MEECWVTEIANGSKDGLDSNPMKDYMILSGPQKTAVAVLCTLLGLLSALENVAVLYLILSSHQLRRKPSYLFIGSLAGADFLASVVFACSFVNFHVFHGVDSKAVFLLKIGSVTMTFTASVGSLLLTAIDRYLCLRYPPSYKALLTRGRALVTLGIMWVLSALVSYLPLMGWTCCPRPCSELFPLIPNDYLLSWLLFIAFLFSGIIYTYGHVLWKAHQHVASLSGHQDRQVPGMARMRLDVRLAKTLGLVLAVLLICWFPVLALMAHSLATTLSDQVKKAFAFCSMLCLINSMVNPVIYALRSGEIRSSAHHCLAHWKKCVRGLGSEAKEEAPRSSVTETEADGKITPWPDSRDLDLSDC
Description: Assays were performed as previously described. Clean membranes expressing hCB2 were diluted in silanized plastic tubes with GTPγS binding buffer (50 mM Tris-HCl, 3 mM MgCl2, 0.2 mM EGTA and 100 mM NaCl at pH 7.4 supplemented with 0.5% fatty acid-free BSA) in the presence of 10 μM of GDP and 0.1 nM of [^35S]GTPγS. The mixture was kept on ice until the binding reaction was started by adding the vehicle or compounds. Non-specific binding was measured in presence of 10 μM GTPγS. The tubes were incubated at 30 °C for 90 min under shaking and then put on ice to stop the reaction. An aliquot (185 μL) of the reaction mixture was rapidly filtered through a 96-well microplate bonded with GF/B glass fibre filters previously pre-soaked with ice-cold washing buffer (50 mM of Tris-HCl pH 7.4 plus 0.1% fatty acid-free BSA). The filters were washed six times with 180 µL of washing buffer under vacuum. The radioactivity was measured after the addition of 45 µL of MicroScint20 scintillation cocktail. Specific binding was calculated by subtracting the residual radioactivity signal obtained in presence of an excess of GTPγS and the results were expressed as % of vehicle control.

hCB2 receptor [2] = target: T1, hCB2 receptor; assay: cAMP assay in CHO-K1-hCB2 cells (GloSensor); assay type: cell-based; design: expressed in transfected cells; host or cells: CHO-K1; conditions: for EC50: 2-AG, mean (95% CI)
Description: cAMP assays were performed in CHO-K1-hCB2 stably transfected with the pGloSensorTM 22-F plasmid (Promega) as previously described. Briefly, cells were seeded in 96-well plate and after attachment the medium was replaced by 40 µL of equilibration medium (GloSensor™ cAMP Reagent diluted in 5% v v^−1 of CO2-independent medium plus 10% FBS). The plates were incubated for 2 h at RT in the dark. […] Chemiluminescence was monitored continuously starting from immediately after the addition and for 30 min (keeping the plate at RT and in the dark). Basal levels of chemiluminescence (cells plus IBMX and vehicle without forskolin) were subtracted to the measured values. Results were normalized by subtracting the residual cAMP production and expressed as % of vehicle control.

hCB2 receptor [3] = target: T1, hCB2 receptor; assay: Equilibrium binding / displacement of fluorescent pepcan-F4 on CHO-K1-hCB2 cells; design: expressed in transfected cells; host or cells: CHO-K1; conditions: for Ki: 100 nM pepcan-F4
Description: The equilibrium dissociation constant (Kd value) of the fluorescein-labeled pepcan-12 derivative pepcan-F4 was determined using CHO-K1-hCB2 cells as previously described. Equilibrium saturation binding was determined experimentally, and maximal specific binding (saturation) was reached already at 5 min at 37 °C. Different concentrations of pepcans and 100 nM pepcan-F4 were incubated together with […] suspended in 200 μL of binding buffer in silanized plastic tubes, under shaking for 60 min at 37 °C. After centrifugation at 4 °C and washing with ice-cold binding buffer, the cells were resuspended in ice-cold PBS and transferred into 96-well black plates, where the fluorescence intensities were measured using a Tecan Farcyte reader (485 nm excitation/535 nm emission). The specific binding was determined after washing and subtracting the nonspecific fluorescence calculated in parallel experiments carried out in non-transfected CHO cells.

hCB2 receptor [4] = target: T1, hCB2 receptor; assay: Radioligand binding assays with [3H]CP55,940 and [3H]WIN55,212-2 on CHO-K1-hCB2 membranes; design: expressed in transfected cells; host or cells: CHO-K1; conditions: for enhancement of [3H]CP55,940 and [3H]WIN55,212-2 receptor binding: 100 nM and 1 μM; for Kb: pKB, ternary complex model
Description: After the incubation time, membrane suspensions were rapidly filtered through a 0.1% polyethyleneimine presoaked 96-well microplate bonded with GF/B glass fiber filters (UniFilter-96 GF/B, PerkinElmer Life Sciences) under vacuum and washed 12 times with 150 μL of ice-cold binding buffer Filters were added with 40 μL of MicroScint20 scintillation liquid, and radioactivity was measured with the Trilux top counter (PerkinElmer Life Sciences). Data were collected from 3–10 independent experiments, each performed in triplicate, and the nonspecific binding was subtracted. The results are expressed as a percentage of vehicle-treated samples.

hCB2 receptor [5] = target: T1, hCB2 receptor; assay: Dissociation kinetics of [3H]CP55,940 by isotopic dilution; assay type: binding; design: expressed in transfected cells; conditions: 1 μM CP55,940 added to bound [3H]CP55,940 (0.5 nM), 300 nM pepcan-12
Description: Dissociation kinetics experiments were performed as described before. […] […] […] After the incubation time, membrane suspensions were rapidly filtered through a 0.1% polyethyleneimine presoaked 96-well microplate bonded with GF/B glass fiber filters and washed as described above.

CCCCC/C=C\C/C=C\C/C=C\C/C=C\CCCC(=O)OC(CO)CO [Pepcan 2-AG, 2-arachidonoyl glycerol]
EC50 (hCB2 receptor [1]; pepcan-12 0 nM): 95.8 nM | [35S]GTPγS assay Max. Effect (hCB2 receptor [1]; pepcan-12 0 nM): 235 (220–251) % of crtl | EC50 (hCB2 receptor [1]; pepcan-12 10 nM): 64.9 nM | [35S]GTPγS assay Max. Effect (hCB2 receptor [1]; pepcan-12 10 nM): 238 (221–251) % of crtl | EC50 (hCB2 receptor [1]; pepcan-12 30 nM): 40.9 nM | [35S]GTPγS assay Max. Effect (hCB2 receptor [1]; pepcan-12 30 nM): 254 (237–272) % of crtl | EC50 (hCB2 receptor [1]; pepcan-12 100 nM): 35.4 nM | [35S]GTPγS assay Max. Effect (hCB2 receptor [1]; pepcan-12 100 nM): 291 (265–318) % of crtl | EC50 (hCB2 receptor [2]; pepcan-12 0 nM): 92.1 nM | EC50 (hCB2 receptor [2]; pepcan-12 10 nM): 102 nM | EC50 (hCB2 receptor [2]; pepcan-12 30 nM): 25.1 nM | EC50 (hCB2 receptor [2]; pepcan-12 100 nM): 12.4 nM

HAHKLRVDPVNFKLLSH [Pepcan-17]
Ki (hCB2 receptor [3]): 183 ± 39.4 nM

HKLRVDPVNFKLLSH [Pepcan-15]
Ki (hCB2 receptor [3]): 77.8 ± 8.2 nM

KLRVDPVNFKLLSH [Pepcan-14]
enhancement of [3H]CP55,940 and [3H]WIN55,212-2 receptor binding (hCB2 receptor [4]): weaker yet still significant effects | effect on [35S]GTPγS binding in absence of agonist (hCB2 receptor [1]; no orthosteric ligand): Lack of effects | effect on cAMP levels in absence of agonist (hCB2 receptor [2]; no orthosteric ligand): Lack of effects

RVDPVNFKLLSH [Pepcan-12]
Ki (hCB2 receptor [3]): 44.7 nM and ~50 nM | Half-life (fast) (hCB2 receptor [5]): 0.844 (0.703 to 1.057) min | Half-life (slow) (hCB2 receptor [5]): 49.90 (29.3 to 169.3) min | Kb (hCB2 receptor [4]; [3H]CP55,940 bound): 58.9 nM | Kb (hCB2 receptor [4]; [3H]WIN55,212-2 bound): 53.7 nM

SALSDLHAHKLRVDPVNFKLLSH [Pepcan-23, putative precursor of pepcan-12]
enhancement of [3H]CP55,940 and [3H]WIN55,212-2 receptor binding (hCB2 receptor [4]): did not exhibit any receptor interaction

SDLHAHKLRVDPVNFKLLSH [Pepcan-20]
Ki (hCB2 receptor [3]): > 10000 nM

pepcan-F4: C-terminal fluorescence-labeled (fluorescein) pepcan-12 conjugate (RVDPVNFKLLSH; synthetic pepcan-12 (alpha-hemoglobin fragment)
Kd (hCB2 receptor [3]; specific saturation curve, read-out: apparent Kd for hCB2 receptors): 123 ± 41.2 nM
